# Test results reported in PubChem BioAssay AID1963973 (Molecular Pharmacology Branch, DTP, NCI, 2024).
# System: 883617-216-R-J1-PDC tumor spheroids, viability
# Assay: Anticancer human tumor 883617-216-R-J1-PDC patient-derived bladder carcinoma cell line growth inhibition [PI3K]
# Conditions: spheroids with HUVEC and MSC; for IC50: curve of first compound; for viability, T/C: stronger effect = lower value
# Method in brief: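 We assembled tumor spheroids that included a stromal compartment of HUVEC and MSCs, then exposed them to targeted agents alone and together with PI3K pathway inhibitors. Concentration series descended by half-log from clinically achievable Cmax levels. Viability served as the endpoint.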
# [1] = second compound 0.00316 µM, first compound 0.0316 µM
# [2] = second compound 0.00316 µM, first compound 0.1 µM
# [3] = second compound 0.01 µM, first compound 0.0316 µM
# [4] = second compound 0.01 µM, first compound 0.1 µM
# [5] = second compound 0.0316 µM, first compound 0.0316 µM
# [6] = second compound 0.0316 µM, first compound 0.1 µM
# [7] = second compound 0.1 µM, first compound 0.0316 µM
# [8] = second compound 0.1 µM, first compound 0.1 µM
# [9] = second compound 0.316 µM, first compound 0.0316 µM
# [10] = second compound 0.316 µM, first compound 0.1 µM
# [11] = second compound 1 µM, first compound 0.0316 µM
# [12] = second compound 1 µM, first compound 0.1 µM
# 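Further: spheroids exposed to agents for 7 days before the viability read.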
smiles,measurement,setting,value
CC(C)NCC(C(=O)N1CCN(c2ncnc3c2C(C)CC3O)CC1)c1ccc(Cl)cc1 (centres undefined) + CC(Nc1ccc2c(c1)OCCn1cc(N3C(=O)OCC3C(F)F)nc1-2)C(N)=O,IC50,second compound 0.00316 µM,453 nM
same,IC50,second compound 0.01 µM,520 nM
same,IC50,second compound 0.0316 µM,254 nM
same,IC50,second compound 0.1 µM,76.6 nM
same,IC50,second compound 0.316 µM,< 31.6 nM
same,IC50,second compound 1 µM,< 31.6 nM
same,"viability, T/C",[1],83.7%
same,"viability, T/C",[2],81.7%
same,"viability, T/C","second compound 0.00316 µM, first compound 0.316 µM",57.4%
same,"viability, T/C","second compound 0.00316 µM, first compound 1 µM",30.3%
same,"viability, T/C","second compound 0.00316 µM, first compound 3.16 µM",15.1%
same,"viability, T/C","second compound 0.00316 µM, first compound 10 µM",6.47%
same,"viability, T/C",[3],74.1%
same,"viability, T/C",[4],79.9%
same,"viability, T/C","second compound 0.01 µM, first compound 0.316 µM",64%
same,"viability, T/C","second compound 0.01 µM, first compound 1 µM",30.3%
same,"viability, T/C","second compound 0.01 µM, first compound 3.16 µM",14.8%
same,"viability, T/C","second compound 0.01 µM, first compound 10 µM",5.88%
same,"viability, T/C",[5],73.8%
same,"viability, T/C",[6],62%
same,"viability, T/C","second compound 0.0316 µM, first compound 0.316 µM",48.1%
same,"viability, T/C","second compound 0.0316 µM, first compound 1 µM",27.1%
same,"viability, T/C","second compound 0.0316 µM, first compound 3.16 µM",12.8%
same,"viability, T/C","second compound 0.0316 µM, first compound 10 µM",6.19%
same,"viability, T/C",[7],87.1%
same,"viability, T/C",[8],32.9%
same,"viability, T/C","second compound 0.1 µM, first compound 0.316 µM",27.9%
same,"viability, T/C","second compound 0.1 µM, first compound 1 µM",19.2%
same,"viability, T/C","second compound 0.1 µM, first compound 3.16 µM",10.1%
same,"viability, T/C","second compound 0.1 µM, first compound 10 µM",5.7%
same,"viability, T/C",[9],27.5%
same,"viability, T/C",[10],26.4%
same,"viability, T/C","second compound 0.316 µM, first compound 0.316 µM",20.7%
same,"viability, T/C","second compound 0.316 µM, first compound 1 µM",13.2%
same,"viability, T/C","second compound 0.316 µM, first compound 3.16 µM",7.79%
same,"viability, T/C","second compound 0.316 µM, first compound 10 µM",4.52%
same,"viability, T/C",[11],14.9%
same,"viability, T/C",[12],21.9%
same,"viability, T/C","second compound 1 µM, first compound 0.316 µM",15.7%
same,"viability, T/C","second compound 1 µM, first compound 1 µM",10.1%
same,"viability, T/C","second compound 1 µM, first compound 3.16 µM",10.1%
same,"viability, T/C","second compound 1 µM, first compound 10 µM",3.3%
Cn1ncnc1[C@H]1c2n[nH]c(=O)c3cc(F)cc(c23)N[C@@H]1c1ccc(F)cc1 + CC(Nc1ccc2c(c1)OCCn1cc(N3C(=O)OCC3C(F)F)nc1-2)C(N)=O,IC50,second compound 0.00316 µM,> 100 nM
same,IC50,second compound 0.01 µM,> 100 nM
same,IC50,second compound 0.0316 µM,5.36 nM
same,IC50,second compound 0.1 µM,< 0.316 nM
same,IC50,second compound 0.316 µM,< 0.316 nM
same,IC50,second compound 1 µM,< 0.316 nM
same,"viability, T/C","second compound 0.00316 µM, first compound 0.000316 µM",84.3%
same,"viability, T/C","second compound 0.00316 µM, first compound 0.001 µM",83.1%
same,"viability, T/C","second compound 0.00316 µM, first compound 0.00316 µM",89%
same,"viability, T/C","second compound 0.00316 µM, first compound 0.01 µM",78.3%
same,"viability, T/C",[1],63%
same,"viability, T/C",[2],63.2%
same,"viability, T/C","second compound 0.01 µM, first compound 0.000316 µM",83%
same,"viability, T/C","second compound 0.01 µM, first compound 0.001 µM",94.6%
same,"viability, T/C","second compound 0.01 µM, first compound 0.00316 µM",79.3%
same,"viability, T/C","second compound 0.01 µM, first compound 0.01 µM",69%
same,"viability, T/C",[3],64.9%
same,"viability, T/C",[4],59.5%
same,"viability, T/C","second compound 0.0316 µM, first compound 0.000316 µM",69.6%
same,"viability, T/C","second compound 0.0316 µM, first compound 0.001 µM",79.7%
same,"viability, T/C","second compound 0.0316 µM, first compound 0.00316 µM",54.2%
same,"viability, T/C","second compound 0.0316 µM, first compound 0.01 µM",50%
same,"viability, T/C",[5],44.2%
same,"viability, T/C",[6],40.6%
same,"viability, T/C","second compound 0.1 µM, first compound 0.000316 µM",43.4%
same,"viability, T/C","second compound 0.1 µM, first compound 0.001 µM",45.1%
same,"viability, T/C","second compound 0.1 µM, first compound 0.00316 µM",43.7%
same,"viability, T/C","second compound 0.1 µM, first compound 0.01 µM",38.2%
same,"viability, T/C",[7],32.1%
same,"viability, T/C",[8],31.9%
same,"viability, T/C","second compound 0.316 µM, first compound 0.000316 µM",25.7%
same,"viability, T/C","second compound 0.316 µM, first compound 0.001 µM",25.3%
same,"viability, T/C","second compound 0.316 µM, first compound 0.00316 µM",25.8%
same,"viability, T/C","second compound 0.316 µM, first compound 0.01 µM",28.6%
same,"viability, T/C",[9],22.8%
same,"viability, T/C",[10],19.1%
same,"viability, T/C","second compound 1 µM, first compound 0.000316 µM",18.5%
same,"viability, T/C","second compound 1 µM, first compound 0.001 µM",15.8%
same,"viability, T/C","second compound 1 µM, first compound 0.00316 µM",13%
same,"viability, T/C","second compound 1 µM, first compound 0.01 µM",14.6%
same,"viability, T/C",[11],13.5%
same,"viability, T/C",[12],10.8%
